Assay results from patent US9789096B2, “Methods and compositions for selective and targeted cancer therapy” (Board of Regents of the University of Texas System, priority 2013, dated 2017).

Assays:
SCD1 = molecular target: T1, SCD1 (Mus musculus, UniProt P13516); assay: Tritium release assay of SCD1 activity, mouse preputial gland; format: biochemical; settings: preputial gland lacks CYP4F11
T1 construct: tissue derived from mouse liver and preputial gland was independently exposed; from tissue; host or cells: mouse liver
Excerpt: FIGS. 10A-10F. Sensitive cells express high levels of CYP4 family members. FIG. 10A. relative expression levels of mRNA for a panel of cytochrome P450 enzymes from the cancer cell line encyclopedia (CCLE, http://www.broadinstitute.org/ccle) showing CYP4F11 in particular is highly expressed in 4 NSCLC lines that are sensitive to SCD1 inhibition. FIG. 10B. Western blot showing that CYP4F11 protein is expressed in all sensitive cell lines but not in the majority of insensitive cell lines. FIG. 10C. […] FIG. 10D. Cells were incubated with either a methoxy-containing oxalamide, which represents the pro-drug form, or the hydroxy containing oxalamide, which represents the active form of the drug. […] FIG. 10E. 293t cells were transfected with mammalian expression plasmids containing SCD1 or CYP4F11 as indicated. Cells were treated with either SW208108 or its demethylated congener, SW211666, and conjugated with a fluorescent dye as described in FIG. 7. Cells containing CYP4F11 form covalent adducts with both the pro-drug (methoxy) and drug form (demethylated, i.e. OH). […] FIG. 10F. Shown are the results of a tritium release assay in which tritiated water is produced from tritiated stearoyl CoA by the action of SCD1. […] By contrast, SW211666 but not SW208108 inhibits SCD1 in mouse preputial gland, which lacks CYP4F11 (bottom). […]

H2122 = assay: Cell viability dose-response, H2122; format: cell-based, human; settings: text b138; read-out: IC50 towards H2122 cells
How it was run: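 Viability read as total ATP (Cell Titer Glo) following 4 days' compound exposure, with IC50 derived from dose-response curves. Duplicate 12-point series, top concentration 50 micromolar with 3-fold steps, on cells seeded at 15% confluence in RPMI-1640, 5% FBS, 2 mM L-glutamine.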

HMOX2 [1] = molecular target: T2, HMOX2 (Homo sapiens, UniProt P30519); assay: Immunoprecipitation of SW208108-bound protein with anti-HMOX2; format: binding
T2 construct: endogenous in cells; host or cells: H2122 cells (homogenate / lysate)
Excerpt: FIG. 7M. HMOX2 binds to SW208108 and is partially competed by an active competitor. Lysates collected from H2122 cells treated with SW208108 with or without competitor were immunoprecipitated with either IgG or anti-HMOX2 and then “clicked” to a dye-azide (as described in FIG. 7A). HMOX2 binds to SW208108 and binding is partially diminished in the presence of a competitor.
(§1) However, when HO2 was knocked out from H2122 cells using Crisper technology (FIG. 7O), no toxicity was observed, and SW208108 and related compounds retained toxicity towards H2122 cells (FIG. 7P). We conclude that HO2 is not required for cell survival or for the cytotoxicity of the selective toxins.

HMOX2 [2] = molecular target: T2, HMOX2; assay: HMOX2 activity in H2122 cell homogenate (bilirubin production); format: biochemical
Procedure: FIG. 7N. Oxalamide inhibits the activity of HMOX2 in vitro. H2122 cell homogenate was incubated with varying concentrations of SW208108 in the presence of excess NADPH, NADPH cytochrome reductase, and biliverdin reductase. The samples were extracted with chloroform and absorbance was measured at 450 nm refecting bilirubin production.
as §1

T2 sequence (P30519 whole entry): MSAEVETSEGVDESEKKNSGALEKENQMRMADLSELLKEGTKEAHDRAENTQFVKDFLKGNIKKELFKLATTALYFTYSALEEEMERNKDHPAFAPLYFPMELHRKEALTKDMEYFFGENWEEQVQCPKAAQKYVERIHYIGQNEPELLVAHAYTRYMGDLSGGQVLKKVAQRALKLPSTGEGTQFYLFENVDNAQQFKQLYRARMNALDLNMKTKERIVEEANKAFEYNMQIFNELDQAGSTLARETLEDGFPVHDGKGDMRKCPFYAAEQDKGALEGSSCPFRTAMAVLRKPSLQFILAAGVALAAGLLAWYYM
T1 sequence (P13516 whole entry): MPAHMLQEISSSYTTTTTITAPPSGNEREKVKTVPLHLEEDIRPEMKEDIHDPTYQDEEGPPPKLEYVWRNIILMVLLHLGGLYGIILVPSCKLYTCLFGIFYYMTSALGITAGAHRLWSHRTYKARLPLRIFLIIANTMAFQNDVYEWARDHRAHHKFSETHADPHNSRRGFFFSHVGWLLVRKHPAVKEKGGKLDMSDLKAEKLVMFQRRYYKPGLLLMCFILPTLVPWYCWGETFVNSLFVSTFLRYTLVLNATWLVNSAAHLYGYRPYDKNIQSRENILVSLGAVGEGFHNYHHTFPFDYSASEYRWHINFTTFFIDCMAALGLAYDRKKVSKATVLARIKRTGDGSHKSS

C#CCOc1ccc(C(=O)c2ccc(NC(=O)C(=O)NCCc3ccc(OC)cc3)cc2)cc1 [SW208108]
inhibition of SCD1 activity in mouse preputial gland tissue (SCD1): not in the preputial gland
IC50 (H2122): 30 nM
covalent binding to HO2 (HMOX2) (HMOX2 [1]): covalently bound
activity of HMOX2 in vitro (HMOX2 [2]): inhibits
